“And” between values parts separate entries of the source, which are not always exact repeats. Equal values may be shown once.
Assays:
[1] = test system: virus budding in virus-producing cells; assay: In vitro inhibition of virus budding: production of defective budded virions (Example 10); type: cell-based; conditions: in vitro; Table IX; read-out: EC50 for production of defective budded virions
Description: (§1) The results presented above in Table IX are presented as EC50 concentrations. These are the effective concentrations which inhibit 50% of the viruses in micromolar concentrations.

[2] = target: T1, Radiation Leukemia Virus reverse transcriptase (Radiation murine leukemia virus, UniProt P11227); assay: Radiation Leukemia Virus reverse transcriptase assay, supernatants from infected AQR cells (Examples 4 and 9); type: biochemical; conditions: Table VI; for CPM: replicate, listed as Hy
T1 construct: the reverse transcriptase of Radiation Leukemia Virus; endogenous in cells
Method in brief: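 Supernatants from AQR cells chronically infected with RadLV were incubated 30 min on ice with the test compound (hypericin, protohypericin or HHA). Virus was pelleted at 100,000×g for 1 h at 4 °C, and the pellet was assayed for reverse transcriptase activity.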

Friend Leukemia Virus = assay: In vivo inhibition of Friend Leukemia Virus splenomegaly, intravenous 1-2 hours post infection (Example 10); parameters: species or system mice; conditions: Mus musculus, read-out: EC50 for FV-induced splenomegaly
Description: (3) In vivo inhibition of Friend Leukemia Virus Splenomegaly performed as described in Example 1 above except that the compounds were administered intravenously 1-2 hours post infection.
as §1

[3] = Antiviral activity of hypericin as a function of frequency of treatment in mouse studies; type: in vivo
Description: The present inventors have also discovered that the antiviral activity of hypericin is a function of the frequency of treatment. […] While the foregoing observations in mice may not be applicable to other mammals or humans, those skilled in the art will appreciate that the frequency of treatment is subject to optimization, which can be determined by routine experimentation according to methods well known in the art, e.g. by establishing a matrix of dosage and frequency and assigning a group of experimental subjects to each point of the matrix. Design of this experiment should preferably also take into account the tissue accumulation properties of PAC compounds.

retroviruses (virions) = assay: Direct inactivation of retroviruses (virions) in vitro (Example 10); type: biochemical, Radiation Leukemia Virus; conditions: Table IX
Method in brief: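 RadLV-containing supernatants from chronically infected B10.T(6R) cells incubated 30 min on ice with hypericin or protohypericin. Virions then pelleted at 100,000×g for 1 h at 4° C and assayed for reverse transcriptase activity. EC50 is the micromolar concentration inhibiting 50% of virus.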

[4] = target: T1, Radiation Leukemia Virus reverse transcriptase; assay: Reverse transcriptase assay of Radiation Leukemia Virus from B10.T(6R) cell supernatants (Example 3); type: biochemical; conditions: Table V; for CPM: replicate
Description: Supernatants (10 ml/tube) from B10.T(6R) cells (Meruelo et al. J. Exp. Med. 147: 470-487, 1978) chronically infected with Radiation Leukemia Virus (RadLV) were obtained by centrifugation of cells in culture at 4° C., 3500 rpm for 15 minutes. The top 2/3 of the supernatant were removed and aliquots were incubated for 30 minutes on ice with the indicated amounts of hypericin or protohypericin. […] Thereafter, supernatants were centrifuged at 100,000×g using a TI70 rotor (Beckman Instruments) for 1 hour at 4° C. The pellet was […] and analyzed for reverse transcriptase activity as follows.
The reverse transcriptase assay was performed in a volume of 100 microliters containing the following components:
The reverse transcriptase assay provides a measure of the antiviral activity of the compounds tested by reference to the observed decrease in activity of this enzyme.
In Table V, "CPM" is "counts per minute", "Average" is the numerical average of CPM values within each group of animals.

Cc1cc(O)c2c(=O)c3c(O)cc(O)c4c5c(O)cc(O)c6c(=O)c7c(O)cc(C)c8c1c2c(c34)c(c78)c65 [hypericin, Hypericin]
EC50 [1]: 200 nM
Average CPM ([2]; 0.4 micrograms): 2,489 CPM
Average percent inhibition ([2]; 0.4 micrograms): 99.4%
CPM ([2]; 0.4 micrograms): 1,700 CPM and 3,278 CPM
Average CPM ([2]; 2 micrograms): 9,986 CPM
Average percent inhibition ([2]; 2 micrograms): 97.8%
CPM ([2]; 2 micrograms): 14,474 CPM and 5,498 CPM
Average CPM ([2]; 10 micrograms): 11,588 CPM
Average percent inhibition ([2]; 10 micrograms): 97.4%
CPM ([2]; 10 micrograms): 9,288 CPM and 13,888 CPM
Average CPM ([2]; 50 micrograms): 31,818 CPM
Average percent inhibition ([2]; 50 micrograms): 92.9%
CPM ([2]; 50 micrograms): 33,948 CPM and 29,688 CPM
Average CPM ([2]; 100 micrograms): 31,347 CPM
Average percent inhibition ([2]; 100 micrograms): 93.0%
CPM ([2]; 100 micrograms): 28,946 CPM and 33,748 CPM
EC50 (Friend Leukemia Virus): 120 nM
antiviral activity vs frequency of treatment ([3]; 10 micrograms every day for ten days): less effective than even a single 10-microgram dose
antiviral activity vs frequency of treatment ([3]; 10 micrograms once a week): as effective as the single 10-microgram dose
antiviral activity vs dose ([3]; single dose of ten micrograms per mouse): less effective than a single dose of 100 micrograms per mouse
EC50 (retroviruses (virions)): 60 nM
Average CPM ([4]; 0.05 micrograms): 3,067 CPM
Average percent inhibition ([4]; 0.05 micrograms): 98.5%
CPM ([4]; 0.05 micrograms): 2,882 CPM and 3,252 CPM
Average CPM ([4]; 0.1 micrograms): 2,333 CPM
Average percent inhibition ([4]; 0.1 micrograms): 98.9%
CPM ([4]; 0.1 micrograms): 1,668 CPM and 2,998 CPM
Average CPM ([4]; 0.5 micrograms): 3,428.5 CPM
Average percent inhibition ([4]; 0.5 micrograms): 98.4%
CPM ([4]; 0.5 micrograms): 3,190 CPM and 3,667 CPM
Average CPM ([4]; 1 microgram): 4,097 CPM
Average percent inhibition ([4]; 1 microgram): 98.0%
CPM ([4]; 1 microgram): 4,504 CPM and 3,690 CPM
Average CPM ([4]; 5 micrograms): 11,778 CPM
Average percent inhibition ([4]; 5 micrograms): 94.4%
CPM ([4]; 5 micrograms): 12,224 CPM and 11,332 CPM
Average CPM ([4]; 10 micrograms): 9,007 CPM
Average percent inhibition ([4]; 10 micrograms): 95.7%
CPM ([4]; 10 micrograms): 8,912 CPM and 9,102 CPM
Average CPM ([4]; 50 micrograms): 4,575 CPM
Average percent inhibition ([4]; 50 micrograms): 97.8%
CPM ([4]; 50 micrograms): 5,434 CPM and 3,716 CPM
Average CPM ([4]; 100 micrograms): 1,830 CPM
Average percent inhibition ([4]; 100 micrograms): 99.0%
CPM ([4]; 100 micrograms): 1,502 CPM and 2,158 CPM

— patent publication US6150414A, “Compositions and methods for treating viral infections” (priority 1992, dated 2000)
